Experimental data as given in ChEMBL document CHEMBL5727531, “TrkA kinase inhibitors, compositions and methods thereof” (2020).

Target: High affinity nerve growth factor receptor (Homo sapiens, UniProt P04629)
Assay: Biological Assay: TrkA functional activity was measured using a DiscoverX PathHunter assay. In this assay, U2OS cells express the human TrkA receptor as a fusion with the weakly complementing fragment of B-galactosidase, which DiscoverX calls Prolink (PK); additionally, Shc1 is fused with a larger fragment, which is called Enzyme Acceptor (EA). Activation of the TrkA receptor, upon NGF addition, results in the kinase domain being phosphorylated, resulting in subsequent recruitment of Shc1-EA protein. That recruitment results in an active B-galactosidase enzyme that is detected by addition of a chemiluminescent substrate. The human p75NTR protein was also expressed as a co-receptor for NGF.

Chain of High affinity nerve growth factor receptor (P04629 whole entry, the tested form may be a part): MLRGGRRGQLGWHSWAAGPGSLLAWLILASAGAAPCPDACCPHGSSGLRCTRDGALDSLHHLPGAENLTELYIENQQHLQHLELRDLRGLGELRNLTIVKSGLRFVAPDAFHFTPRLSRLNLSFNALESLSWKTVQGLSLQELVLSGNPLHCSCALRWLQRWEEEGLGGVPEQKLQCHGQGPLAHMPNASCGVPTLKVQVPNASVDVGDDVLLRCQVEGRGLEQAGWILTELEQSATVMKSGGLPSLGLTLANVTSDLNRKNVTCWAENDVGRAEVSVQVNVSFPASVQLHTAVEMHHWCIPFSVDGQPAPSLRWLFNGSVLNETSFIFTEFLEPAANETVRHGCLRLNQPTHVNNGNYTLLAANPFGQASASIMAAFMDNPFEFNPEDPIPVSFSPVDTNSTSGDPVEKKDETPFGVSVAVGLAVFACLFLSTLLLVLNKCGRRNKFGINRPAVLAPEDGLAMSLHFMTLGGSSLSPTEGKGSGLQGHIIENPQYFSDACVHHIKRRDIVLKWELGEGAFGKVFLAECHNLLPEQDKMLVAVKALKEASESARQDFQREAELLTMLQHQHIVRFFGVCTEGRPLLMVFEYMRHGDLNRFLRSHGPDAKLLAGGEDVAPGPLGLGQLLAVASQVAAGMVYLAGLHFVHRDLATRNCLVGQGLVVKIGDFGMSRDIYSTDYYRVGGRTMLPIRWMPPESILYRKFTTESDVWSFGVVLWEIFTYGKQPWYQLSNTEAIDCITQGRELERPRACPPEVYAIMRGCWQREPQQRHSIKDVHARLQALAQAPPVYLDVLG

IC50: 50 nM
Structure (SMILES): Cn1ccc(-c2cc(C(=O)Nc3c(-c4ccccc4)ccc4c(C(C)(C)O)ncn34)c(F)cc2C(F)(F)F)n1
